{"source": "patent US20230149507A1", "about": "“TREATMENT OF ALT CANCERS” (INSTITUTO DE MEDICINA MOLECULAR JOÃO LOBO ANTUNES, priority 2019, published 2023)", "key": {"U-2 OS cells [1]": {"test_system": "U-2 OS cells", "test": "APB frequency and APB telomere intensity in cells overexpressing FANCM variants", "type": "cell-based, human", "conditions": "overexpression", "source_text": "(a) Western immunoblotting of stable wild-type FANCM (FANCM+) or FANCM mutant overexpression in U-2 OS cells. […] (b) TRF analysis of U-2 OS cells overexpressing wild-type (FANCM+) or FANCM mutants. Gels were hybridized under native and denatured conditions with radiolabelled telomeric probes to detect the C-strand and G-strand. (c) Tukey boxplots of APB frequency (top panel) and mean APB telomere intensity (bottom panel) in U-2 OS cells overexpressing wild-type (FANCM+) or FANCM mutants. Out of 3 experiments, n=150 cells scored per variant, *p<0.05, **p<0.005, Mann-Whitney test.\nFIG. 23. Defects in ALT phenotype suppression are exacerbated by overexpression of a double-mutant (DM) FANCM, in which both the MM2 domain (FF>AA) and the translocase domain (K117R) of FANCM are mutated. (a) Representative dot blots and quantitation of C-circle assays in U-2 OS cells stably overexpressing wild-type (WT) or FANCM domain mutants (K117R, FF>AA; DM). C-circles were normalized to the mean of empty vector control (EV). Error bars represent mean±SEM from n=3 experiments, *p<0.05, **p<0.005, Student's t-test. (b) Quantitation of APB frequency in U-2 OS cells overexpressing wild-type (WT) or FANCM mutants. Scatterplot bars represent the mean±SEM. Out of three experiments, n=150 cells were scored for each mutant, **p<0.005, Mann-Whitney test. (c) Quantitation of metaphase-TIFs in U-2 OS cells stably overexpressing wild-type (WT) or FANCM mutants. Scatterplot bars represent the mean±SEM. Out of three experiments, n=120 metaphases scored for each mutant, *p<0.05, **p<0.005, Mann-Whitney test. All statistical comparisons are relative to EV control.\nEmpty vector and wild-type FANCM (pCMV6-Myc-DDK) constructs were obtained from Origene Technologies. Wild type FANCM (SEQ ID NO: 2) and FANCM mutants (SEQ ID NOs: 19 to 28) were cloned into the pLenti-C-Myc-DDK-IRES-Neo backbone (Origene Technologies) by restriction enzyme subcloning of gene blocks synthesized by Integrated DNA Technologies (IDT). Lentivirus was produced by the Vector and Genome Engineering Facility (Children's Medical Research Institute). For stable overexpression, cells were transduced with lentivirus, allowed to recover for 24 h, and subject to G418 selection. Cells were maintained in G418 to ensure sustained overexpression.\nIndirect IF and telomere FISH were performed on both interphase nuclei and metaphase spreads. For interphase IF experiments, cells were grown on coverslips or LabTek chamber slides (Thermo Scientific). Slides were prepared as described in Sobinoff et al., 2017. Cells on coverslips were washed twice with PBS, permeabilized with KCM buffer (120 mM KCl, 20 mM NaCl, 10 mM Tris pH 7.5, 0.1% Triton), washed again with PBST and PBS, then fixed with ice-cold 4% formaldehyde PBS solution at room temperature for 10 min. Coverslips were blocked with antibody-dilution buffer (20 mM Tris-HCl, pH 7.5, 2% (w/v) BSA, 0.2% (v/v) fish gelatin, 150 mM NaCl, 0.1% (v/v) Triton X-100 and 0.1% (w/v) sodium azide) and 0.1 mg/ml RNaseA for 30 min at 37° C. Cells were incubated with primary antibodies (Supplementary Table 1) for 1 h at 37° C. or 2 h at room temperature, then incubated with 1:1,000 dilution of appropriate Alexa Fluor conjugated secondary antibodies (Thermo Scientific). Coverslips were rinsed with PBS then fixed with 4% (v/v) formaldehyde at room temperature prior to telomere FISH. Coverslips were subjected to a graded ethanol series (75% for 2 min, 85% for 2 min, and 100% for 2 min) and allowed to air-dry. […]"}, "U-2 OS cells [2]": {"test_system": "U-2 OS cells", "test": "Single molecule analysis of telomeric extension events (SMAT) in cells overexpressing FANCM variants", "type": "cell-based, human", "conditions": "overexpression", "source_text": "(a) Schematic of FANCM domain interactions, mutations or deletions. For clarity, domains have been color coded by functional role (bottom panel). (b) Quantitation of metaphase-TIFs in U-2 OS cells stably overexpressing wild-type (FANCM+) or FANCM mutants. Scatterplot bars represent the mean±SEM. Out of 3 experiments, n≥110 metaphases scored for each mutant, *p<0.05, **p<0.005, Mann-Whitney test. (c) Quantitation of fragile telomeres in U-2 OS cells stably overexpressing wild-type (FANCM+) or FANCM mutants. Scatterplot bars represent the mean±SEM. Out of 3 experiments, n>100 metaphases scored for each mutant, *p<0.05, **p<0.005, Mann-Whitney test. (d) Representative dot blots and quantitation of C-circle assays in U-2 OS cells stably overexpressing wild-type (FANCM+) or FANCM domain mutants. C-circles were normalized to the mean of vector control. Error bars represent mean±SEM from n=3 experiments, *p<0.05, **p<0.005, Student's t-test. […]\nCells were labelled with 100 μM CIdU for 5 h prior to harvesting by trypsinization. […] Halogenated nucleotides were detected with a rat anti-CldU monoclonal antibody (Accurate) and Alexa Fluor 488-conjugated goat anti-rat antibody (Molecular Probes). Telomere fibers were detected on a Zeiss Axio Imager microscope with ApoTome module and analyzed with Zen software (Zeiss)."}}, "data": [{"substance": "K117R: FANCM mutant (SEQ ID NO: 20) substituted at K117R, DEAH domain disrupted", "values": [{"measurement": "intensity of telomeric signal within APBs", "setting": "U-2 OS cells [1]", "value": "significant increase"}, {"measurement": "number of APBs", "setting": "U-2 OS cells [1]", "value": "significant increase"}]}, {"substance": "FF>AA: FANCM mutant (SEQ ID NO: 25), double substitution F1232A/F1236A within the MM2 domain", "values": [{"measurement": "intensity of telomeric signal within APBs", "setting": "U-2 OS cells [1]", "value": "significant increase"}, {"measurement": "number of APBs", "setting": "U-2 OS cells [1]", "value": "significant increase"}, {"measurement": "number of telomere extension events", "setting": "U-2 OS cells [2]", "value": "significant increase in the number of extension events"}]}]}
